Experimental data from patent US20250353852A1, “COMPOUNDS AND COMPOSITIONS THAT INHIBIT PIKFYVE” (Kineta, Inc., priority 2021, published 2025).

target: full-length human PIKFYVE (Homo sapiens (Human), UniProt Q9Y2I7, L932S/Q1183K/Q995L/S1033A/S696N/T998S); test: PIKfyve biochemical assay (ADP-Glo Kinase assay, Carna Biosciences); conditions: class symbols
Method in brief: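 N-terminal GST-fused full-length PIKFYVE from baculovirus, incubated with compound, substrate and ATP in 50 mM MOPS, 1 mM DTT, pH7.2 for 1 hour at room temperature. ADP formed detected by ADP-Glo luminescence; IC50 from four-parameter logistic fit of % inhibition.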

Sequence of full-length human PIKFYVE (Q9Y2I7 whole entry S696N/L932S/Q995L/T998S/S1033A/Q1183K, the tested form may be a part): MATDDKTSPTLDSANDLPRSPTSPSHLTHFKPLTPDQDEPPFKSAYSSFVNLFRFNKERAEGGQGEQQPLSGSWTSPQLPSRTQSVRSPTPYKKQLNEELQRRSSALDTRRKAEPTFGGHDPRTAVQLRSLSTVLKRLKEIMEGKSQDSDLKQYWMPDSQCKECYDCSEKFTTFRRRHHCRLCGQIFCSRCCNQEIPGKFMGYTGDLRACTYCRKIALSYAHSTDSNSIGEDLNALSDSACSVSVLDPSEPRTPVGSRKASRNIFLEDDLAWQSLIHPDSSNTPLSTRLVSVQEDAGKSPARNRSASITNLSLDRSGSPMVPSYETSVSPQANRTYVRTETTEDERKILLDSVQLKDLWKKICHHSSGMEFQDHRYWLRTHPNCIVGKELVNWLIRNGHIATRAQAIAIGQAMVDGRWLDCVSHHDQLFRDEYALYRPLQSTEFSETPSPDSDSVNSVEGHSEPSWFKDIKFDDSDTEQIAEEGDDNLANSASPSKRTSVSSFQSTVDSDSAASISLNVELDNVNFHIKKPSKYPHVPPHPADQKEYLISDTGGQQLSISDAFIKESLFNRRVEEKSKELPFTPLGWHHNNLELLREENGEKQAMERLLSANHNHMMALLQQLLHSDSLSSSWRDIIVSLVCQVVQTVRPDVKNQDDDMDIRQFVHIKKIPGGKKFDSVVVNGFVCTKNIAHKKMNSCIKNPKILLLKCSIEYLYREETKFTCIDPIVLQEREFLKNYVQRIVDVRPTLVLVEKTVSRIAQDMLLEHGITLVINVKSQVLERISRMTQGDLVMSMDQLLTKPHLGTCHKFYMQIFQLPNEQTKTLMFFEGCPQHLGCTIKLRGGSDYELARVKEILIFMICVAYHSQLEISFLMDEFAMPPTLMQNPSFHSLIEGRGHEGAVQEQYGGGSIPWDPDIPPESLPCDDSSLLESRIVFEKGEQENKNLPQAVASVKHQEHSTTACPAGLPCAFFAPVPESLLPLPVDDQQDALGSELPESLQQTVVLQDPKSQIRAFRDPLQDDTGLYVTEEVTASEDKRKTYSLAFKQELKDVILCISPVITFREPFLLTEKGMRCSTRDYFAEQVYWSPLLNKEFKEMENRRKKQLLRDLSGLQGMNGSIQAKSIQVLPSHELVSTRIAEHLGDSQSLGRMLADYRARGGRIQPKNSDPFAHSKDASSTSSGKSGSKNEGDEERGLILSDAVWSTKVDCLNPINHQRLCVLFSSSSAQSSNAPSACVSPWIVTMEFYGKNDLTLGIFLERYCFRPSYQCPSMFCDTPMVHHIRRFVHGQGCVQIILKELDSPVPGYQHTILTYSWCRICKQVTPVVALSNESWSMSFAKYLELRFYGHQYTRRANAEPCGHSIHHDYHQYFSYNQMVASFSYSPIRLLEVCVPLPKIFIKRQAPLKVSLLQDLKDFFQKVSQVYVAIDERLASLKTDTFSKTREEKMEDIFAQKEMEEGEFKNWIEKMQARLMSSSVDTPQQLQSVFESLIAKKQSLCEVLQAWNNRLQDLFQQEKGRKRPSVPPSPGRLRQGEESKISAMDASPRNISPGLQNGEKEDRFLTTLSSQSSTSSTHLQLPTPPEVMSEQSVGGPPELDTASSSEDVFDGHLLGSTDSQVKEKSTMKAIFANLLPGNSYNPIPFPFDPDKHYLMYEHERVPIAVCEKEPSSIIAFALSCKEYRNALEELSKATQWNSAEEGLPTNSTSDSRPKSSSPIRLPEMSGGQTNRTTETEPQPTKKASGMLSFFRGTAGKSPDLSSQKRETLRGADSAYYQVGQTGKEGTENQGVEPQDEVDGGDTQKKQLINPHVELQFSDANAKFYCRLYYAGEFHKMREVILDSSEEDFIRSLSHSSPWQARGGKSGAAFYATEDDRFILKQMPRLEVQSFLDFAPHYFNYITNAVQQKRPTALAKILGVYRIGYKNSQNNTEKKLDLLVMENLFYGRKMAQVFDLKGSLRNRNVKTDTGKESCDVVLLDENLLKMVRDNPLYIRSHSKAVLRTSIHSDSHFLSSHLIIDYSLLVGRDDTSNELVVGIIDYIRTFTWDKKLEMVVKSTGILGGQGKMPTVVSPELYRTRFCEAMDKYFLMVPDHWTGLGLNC

| Compound | IC50 |
| --- | --- |
| COc1cccc(-c2ccn(-c3cc(N4CCOCC4)n4nc(-c5ccncc5)cc4n3)n2)c1 [Compound 71, 4-(5-(3-(3-methoxyphenyl)-1H-pyrazol-1-yl)-2-(pyridin-4-yl)pyrazolo[1,5-a]pyrimidin-7-yl)morpholine] | 10 to 100 nM |
| Cc1cccc(-c2ccn(-c3cc(N4CCOCC4)n4nc(-c5cccnc5)cc4n3)n2)c1 [Compound 79] | < 10 nM |
| C=Cc1cc2nc(-n3ccc(-c4ccccc4)n3)cc(N3CCOCC3)n2n1 [Compound 143, 4-(5-(3-phenyl-1H-pyrazol-1-yl)-2-vinylpyrazolo[1,5-a]pyrimidin-7-yl)morpholine] | 100 to 1000 nM |
| Cc1cccc(C(=O)COc2cc(N3CCOCC3)n3nc(-c4ccncc4)cc3n2)c1 [Compound 125, 2-((7-morpholino-2-(pyridin-4-yl)pyrazolo[1,5-a]pyrimidin-5-yl)oxy)-1-(m-tolyl)ethan-1-one] | 1000 to 10000 nM |
| CCOC(=O)Cc1cc(N2CCOCC2)n2nc(-c3ccncc3)cc2n1 [Compound 133, ethyl 2-(7-morpholino-2-(pyridin-4-yl)pyrazolo[1,5-a]pyrimidin-5-yl)acetate] | 1000 to 10000 nM |
| C1=C(c2cn(-c3cc(N4CCOCC4)n4nc(-c5ccncc5)cc4n3)cn2)CNCC1 [Compound 17, 4-(2-(pyridin-4-yl)-5-(4-(1,2,5,6-tetrahydropyridin-3-yl)-1H-imidazol-1-yl)pyrazolo[1,5-a]pyrimidin-7-yl)morpholine] | 1000 to 10000 nM |
| c1ccc(CC2COCCN2c2cc(N3CCOCC3)n3nc(-c4ccncc4)cc3n2)cc1 (stereo not shown) [Compound 36, 3-benzyl-4-(7-morpholino-2-(pyridin-4-yl)pyrazolo[1,5-a]pyrimidin-5-yl)morpholine] | 1000 to 10000 nM |
| NC(=O)c1cc(N2CCOCC2)n2nc(-c3ccncc3)cc2n1 [Compound 102, 7-morpholino-2-(pyridin-4-yl)pyrazolo[1,5-a]pyrimidine-5-carboxamide] | 1000 to 10000 nM |
| 4-(5-(3-(2-fluorophenyl)-1H-pyrazol-1-yl)-2-(tetrahydrofuran-2-yl)pyrazolo[1,5-a]pyrimidin-7-yl)morpholine [Compound 91] | 100 to 1000 nM |
| Cc1cccc(/C=N/Nc2cc(N3CC4CC3CO4)n3nc(-c4ccncc4)cc3n2)c1 (stereo not shown) [Compound 1, (E)-5-(5-(2-(3-methylbenzylidene)hydrazinyl)-2-(pyridin-4-yl)pyrazolo[1,5-a]pyrimidin-7-yl)-2-oxa-5-azabicyclo[2.2.1]heptane] | 10 to 100 nM |
| Oc1cc(-c2cc(N3CCOCC3)n3nc(-c4ccncc4)cc3n2)nn1-c1cccc(F)c1 [Compound 59, 1-(3-fluorophenyl)-3-(7-morpholino-2-(pyridin-4-yl)pyrazolo[1,5-a]pyrimidin-5-yl)-1H-pyrazol-5-ol] | 10 to 100 nM |
| c1ccc(-n2ccc(-c3cc(N4CCOCC4)n4nc(C5CCCO5)cc4n3)n2)cc1 (stereo not shown) [Compound 96, 4-(5-(1-phenyl-1H-pyrazol-3-yl)-2-(tetrahydrofuran-2-yl)pyrazolo[1,5-a]pyrimidin-7-yl)morpholine] | 100 to 1000 nM |
| c1cc(-c2cc3nc(-n4cc5c(n4)CCOC5)cc(N4CCOCC4)n3n2)ccn1 [Compound 89, 2-(7-morpholino-2-(pyridin-4-yl)pyrazolo[1,5-a]pyrimidin-5-yl)-2,4,6,7-tetrahydropyrano[4,3-c]pyrazole] | 100 to 1000 nM |
| c1cc(-c2cc3nc(-n4cc5c(n4)COCC5)cc(N4CCOCC4)n3n2)ccn1 [Compound 87, 2-(7-morpholino-2-(pyridin-4-yl)pyrazolo[1,5-a]pyrimidin-5-yl)-2,4,5,7-tetrahydropyrano[3,4-c]pyrazole] | 1000 to 10000 nM |
| c1cc(-c2cc3nc(-n4cnc(C5CCCNC5)c4)cc(N4CCOCC4)n3n2)ccn1 (stereo not shown) [Compound 16, 4-(5-(4-(piperidin-3-yl)-1H-imidazol-1-yl)-2-(pyridin-4-yl)pyrazolo[1,5-a]pyrimidin-7-yl)morpholine] | 1000 to 10000 nM |
| c1cc(-c2cc3nc(-n4ccc(C5CCCOC5)n4)cc(N4CCOCC4)n3n2)ccn1 (stereo not shown) [Compound 61, 4-(2-(pyridin-4-yl)-5-(3-(tetrahydro-2H-pyran-3-yl)-1H-pyrazol-1-yl)pyrazolo[1,5-a]pyrimidin-7-yl)morpholine] | 1000 to 10000 nM |
| CN1CCCC(c2cn(-c3cc(N4CCOCC4)n4nc(-c5ccncc5)cc4n3)cn2)C1 (stereo not shown) [Compound 18, 4-(5-(4-(1-methylpiperidin-3-yl)-1H-imidazol-1-yl)-2-(pyridin-4-yl)pyrazolo[1,5-a]pyrimidin-7-yl)morpholine] | 1000 to 10000 nM |

tested on: U2OS cells; test: EEA1 assay (endosomal vesicle enlargement as surrogate readout of PIKFyve inhibition); type: cell-based; conditions: Homo sapiens, 3 hours of treatment, class symbols
Description: EEA1 Assay. Genetic or pharmacological disruption of PIKfyve activity results in enlargement of endosomal vesicles. This enlargement was utilized as a surrogate readout of PIKFyve inhibition for routine triage of PIKfyve inhibitors. U2OS cells grown in 96-well assay plates were treated with compound diluted in DMEM media containing 10% fetal bovine serum. After 3 hours of treatment, cells were fixed with paraformaldehyde, permeabilized with 0.2% Triton-X in phosphate buffered saline and stained against EEA1. During the secondary antibody staining, cells were also stained with CellMask DeepRed and Hoechst to detect cytoplasms and nuclei respectively. Endosomal structures were visualized using a high content imager at 40× magnification. Images were analyzed using a linear classifier algorithm integrating EEA1 spot size, intensity and texture trained on images of cells treated with the potent reference compound APY0201. Compound activity was calculated by subtracting the DMSO signal and calculating percentage activity relative to maximal APY0201 activity. IC50s were then calculated from concentration vs. % inhibition data by logistic regression.

| IC50 | Compound |
| --- | --- |
| 1000 to 10000 nM | Cn1ccc(-c2cccc(-c3cc(N4CCOCC4)n4nc(N5CCC(O)CC5)cc4n3)c2)n1 [Compound 152, 1-(5-(3-(1-methyl-1H-pyrazol-3-yl)phenyl)-7-morpholinopyrazolo[1,5-a]pyrimidin-2-yl)piperidin-4-ol] |
| 1000 to 10000 nM | Cc1cccc(-c2ccn(-c3cc(N4CCOCC4)n4nccc4n3)n2)c1 [Compound 78, 4-(5-(3-(m-tolyl)-1H-pyrazol-1-yl)pyrazolo[1,5-a]pyrimidin-7-yl)morpholine] |
| 1000 to 10000 nM | Cc1cccc(-c2ccn(-c3cc(N4CCOCC4)n4nc(C(O)CO)cc4n3)n2)c1 (stereo not shown) [Compound 150, 1-(7-morpholino-5-(3-(m-tolyl)-1H-pyrazol-1-yl)pyrazolo[1,5-a]pyrimidin-2-yl)ethane-1,2-diol] |
| 1000 to 10000 nM | Cc1cccc(-c2ccn(-c3cc(N4CCOCC4)n4nc(C5CCN(C)C(=O)C5)cc4n3)n2)c1 (stereo not shown) [Compound 151, 1-methyl-4-(7-morpholino-5-(3-(m-tolyl)-1H-pyrazol-1-yl)pyrazolo[1,5-a]pyrimidin-2-yl)piperidin-2-one] |
| 1000 to 10000 nM | COc1nn(-c2cc(N3CCOCC3)n3nc(C(O)CO)cc3n2)cc1-c1ccccc1 (stereo not shown) [Compound 145, 1-(5-(3-methoxy-4-phenyl-1H-pyrazol-1-yl)-7-morpholinopyrazolo[1,5-a]pyrimidin-2-yl)ethane-1,2-diol] |

| Compound | IC50 |
| --- | --- |
| COc1cccc(-c2ccn(-c3cc(N4CCOCC4)n4nc(-c5ccncc5)cc4n3)n2)c1 [Compound 71, 4-(5-(3-(3-methoxyphenyl)-1H-pyrazol-1-yl)-2-(pyridin-4-yl)pyrazolo[1,5-a]pyrimidin-7-yl)morpholine] | 100 to 1000 nM |
| Cc1cccc(-c2ccn(-c3cc(N4CCOCC4)n4nc(-c5cccnc5)cc4n3)n2)c1 [Compound 79] | 100 to 1000 nM |
| Cc1cccc(-c2ccn(-c3cc(N4CCOCC4)n4nc(CCC(=O)N(C)C)cc4n3)n2)c1 [Compound 149, N,N-dimethyl-3-(7-morpholino-5-(3-(m-tolyl)-1H-pyrazol-1-yl)pyrazolo[1,5-a]pyrimidin-2-yl)propanamide] | 100 to 1000 nM |

tested on: PIKFYVE TDP-43 yeast strain; test: Propidium iodide viability assay, PIKFYVE TDP-43 yeast strain; type: cell-based; conditions: Saccharomyces cerevisiae; PIKFYVE TDP-43 yeast strain, values plotted in FIG. 7
Description: Generation of TDP-43 yeast model expressing human PIKfyve. Human PIKFYVE (“entry clone”) was cloned into […] (“destination vector”) according to standard Gateway cloning protocols (Invitrogen, Life Technologies). The resulting pAG416GPD-PIKFYVE plasmids were amplified in E. coli and plasmid identity confirmed by restriction digest and Sanger sequencing. […]+) (FIG. 2). Transformed yeast were plated on solid agar plates with complete synthetic media lacking uracil (CSM-ura) and containing 2% glucose. Individual colonies harboring the control or PIKFYVE TDP-43 plasmids were recovered. A plasmid containing wild-type TDP-43 under the transcriptional control of the GAL1 promoter and containing the […] as a selectable marker was transformed into the […]-PIKFYVE yeast strain (FIG. 1). Transformed yeast were plated on CSM-ura containing 2% glucose and 200 μg/mL G418 after overnight recovery in media lacking antibiotic. Multiple independent isolates were further evaluated for cytotoxicity and TDP-43 expression levels. Viability Assay. A control yeast strain with the wild-type yeast FAB1 gene and TDP-43 (“FAB1 TDP-43”, carries empty pAG416 plasmid), and the “PIKFYVE TDP-43” yeast strain, were assessed for toxicity using a propidium iodide viability assay. Both yeast strains were transferred from solid CSM-ura/2% glucose agar plates into 3 mL of liquid CSM-ura/2% glucose media for 6-8 hours at 30° C. with aeration. Yeast cultures were then diluted to an optical density at 600 nm wavelength (OD600) of 0.005 in 3 mL of CSM-ura/2% raffinose and grown overnight at 30° C. with aeration to an OD600 of 0.3-0.8. Log-phase overnight cultures were diluted to OD600 of 0.005 in CSM-ura containing either 2% raffinose or galactose and 150 μL dispensed into each well of a flat bottom 96-well plates. Compounds formulated in 100% dimethyl sulfoxide (DMSO) were serially diluted in DMSO and 1.5 μL diluted compound transferred to the 96-well plates using a multichannel pipet. Wells containing DMSO alone were also evaluated as controls for compound effects. Tested concentrations ranged from 15 μM to 0.11 μM. Cultures were immediately mixed to ensure compound distribution and covered plates incubated at 30° C. for 24 hours in a stationary, humified incubator. Upon the completion of incubation, cultures were assayed for viability using propidium iodide (PI) to stain for dead/dying cells. A working solution of PI was made where, for each plate, 1 μL of 10 mM PI was added to 10 mL of CSM-ura (raffinose or galactose). […] The overnight 96-well assay plate was then mixed with a multichannel pipet and 50 μL transferred to the PI-containing plate. This plate was then incubated for 30 minutes at 30° C. in the dark. A benchtop flow cytometer (Miltenyi MACSquant) was then used to assess red fluorescence (B2 channel), forward scatter, and side scatter (with following settings: gentle mix, high flow rate, fast measurement, 10,000 events). Intensity histograms were then gated for “PI-positive” or “PI-negative” using the raffinose and galactose cultures treated with DMSO as controls. The DMSO controls for raffinose or galactose-containing cultures were used to determine the window of increased cell death and this difference set to 100. All compounds were similarly gated and then compared to this maximal window to establish the percent reduction in PI-positive cells.

| Compound | IC50 |
| --- | --- |
| Cc1cccc(/C=N/Nc2nc(N3CCOCC3)c3ncccc3n2)c1 | 8210 nM |
| c1ccc(-c2ccnc(-c3cc(N4CCOCC4)nc(OCc4ccncc4)n3)n2)cc1 | 1450 nM |
| c1ccc(N2CCc3c(OCc4cccnc4)nc(N4CCOCC4)nc32)cc1 | 2680 nM |
| c1ccc(-c2cccc(-c3cc(N4CCOCC4)n4nc(-c5ccncc5)cc4n3)n2)cc1 | 230 nM |
| Cc1cccc(/C=N/Nc2cc(N3CCOCC3)nc(OCCc3ccc(CN)cc3)n2)c1 | 1120 nM |
| Cc1cccc(/C=N/Nc2nc(N3CCOCC3)c3nc(-c4ccncc4)n(C)c3n2)c1 [drawing 343] | 4720 nM |
| Oc1cc(-c2ccccc2)nn1-c1cc(N2CCOCC2)n2nc(-c3ccncc3)nc2n1 | 693 nM |
| Oc1cc(C2CCOCC2)nn1-c1cc(N2CCOCC2)n2nc(-c3ccncc3)cc2n1 [drawing 345] | 9100 nM |
| Fc1cccc(-c2ccnn2-c2nc(N3CCOCC3)c3ncccc3n2)c1 | 5750 nM |
